Patent US10035800B2 (AbbVie Inc., priority 2013, dated 2018)

How the values were obtained:
[1] = molecular target: T1, BRD4 (BDI_K57-E168) (Homo sapiens, UniProt O60885); assay: TR-FRET bromodomain binding assay, first bromodomain of BRD4; conditions: 100 nM probe
T1 construct: BD1: amino acids K57-E168; made in house
Method: (§1) Bromodomain Domain Binding Assay
(§2) A time-resolved fluorescence resonance energy transfer (TR-FRET) assay was used to determine the affinities of compounds of the Examples listed in Table 1 for each bromodomain of BRD4. His-tagged first (BD1: amino acids K57-E168) and second (BD2: amino acids […]) bromodomains of BRD4 were expressed and purified. An Alexa647-labeled BET-inhibitor was used as the fluorescent probe in the assay.
(§3) Compound dilution series were prepared in DMSO via an approximately 3-fold serial dilution from one of the following: […]
(§4) Assay method E: 0.47 mM to 7.8 nM […]
(§5) Assay method G: 0.047 mM to 0.78 nM
(§6) or 5-fold serial dilution from one of the following: […]
(§7) Assay method B: 2.5 mM-797 nM […]
(§8) For Assay methods B, E, and G: Compound dilutions were added directly into white, low-volume assay plates (Perkin Elmer Proxiplate 384 Plus#6008280) using a Labcyte Echo in conjunction with Labcyte Access and Thermo Multidrop CombinL robotics. Compounds were then suspended in eight microliters (μL) of assay buffer (20 mM Sodium Phosphate, pH 6.0, 50 mM NaCl, 1 mM Ethylenediaminetetraacetic acid disodium salt dihydrate, 0.01% Triton X-100, 1 mM DL-Dithiothreitol) containing His-tagged bromodomain, Europium-conjugated anti-His antibody (Invitrogen PV5596) and Alexa-647-conjugated probe.
(§9) The final concentration of 1× assay mixture for assay methods A, B, C, D, E, F, and G contains 2% DMSO, 8 nM His-tagged bromodomain, 1 nM Europium-conjugated anti-His-tag antibody and 100 nM or 30 nM probe (for BDI or BDII, respectively) and compound concentration in the range of: 50 μM-16 nM for method A, 49.02 μM-15.63 nM for method B, 25 μM-423 pM for method C, 10 μM-169 pM for method D, 9.19 μM-150 pM for method E, 5 μM-85 pM for method F, and 0.92 μM-15 pM for method G.
(§10) After a one-hour equilibration at room temperature, TR-FRET ratios were determined using an Envision multilabel plate reader (Ex 340, Em 495/520).
(§11) TR-FRET data were normalized to the means of 24 no-compound controls (“high”) and 8 controls containing 1 μM un-labeled probe (“low”). Percent inhibition was plotted as a function of compound concentration and the data were fit with the 4 parameter logistic equation to obtain IC50s. Inhibition constants (Ki) were calculated from the IC50s, probe Kd and probe concentration. Typical Z′ values were between 0.65 and 0.75. The minimum significant ratio was determined to evaluate assay reproducibility (Eastwood et al., (2006) J Biomol Screen, 11: 253-261). The MSR was determined to be 2.03 for BDI and 1.93 for BDII, and a moving MSR (last six run MSR overtime) for both BDI and BDII was typically <3.

[2] = molecular target: T2, BRD4 (BDII_E352-M457) (Homo sapiens, UniProt O60885); assay: TR-FRET bromodomain binding assay, second bromodomain of BRD4; conditions: 30 nM probe
T2 construct: protocol; made in house
Method: as §1, §2, §3, §4, §5, §6, §7, §8, §9, §10, §11

[3] = TR-FRET assay protocol G (compound 0.92 μM-15 pM)
[4] = TR-FRET assay protocol E (compound 9.19 μM-150 pM)

| Compound | Ki [1, 3] [nM] | Ki [2, 3] [nM] | Ki [1, 4] [nM] | Ki [2, 4] [nM] |
| --- | --- | --- | --- | --- |
| COc1ccccc1S(=O)(=O)N1Cc2c[nH]c3c(=O)n(C)cc(c23)-c2cc(CS(C)(=O)=O)ccc21 [Example 78, 4-((2-methoxyphenyl)sulfonyl)-10-methyl-7-((methylsulfonyl)methyl)-3,4-dihydro-1H-1,4,10-triazadibenzo[cd,f]azulen-11(10H)-one] | 216 | 126 | – | – |
| Cn1cc2c3c(c[nH]c3c1=O)CN(S(=O)(=O)c1ccc(Oc3ccccc3)cc1)c1ccc(CS(C)(=O)=O)cc1-2 [Example 79, 10-methyl-7-((methylsulfonyl)methyl)-4-((4-phenoxyphenyl)sulfonyl)-3,4-dihydro-1H-1,4,10-triazadibenzo[cd,f]azulen-11(10H)-one] | > 238 | > 408 | – | – |
| 7-fluoro-10-methyl-3,4-dihydro-1H-1,4,5,10-tetraazadibenzo[cd,f]azulen-11(10H)-one [Example 38] | > 238 | > 408 | – | – |
| tert-butyl 4-(3-(4-(2,4-difluorophenyl)-10-methyl-7-((methylsulfonyl)methyl)-11-oxo-3,4,10,11-tetrahydro-1H-1,4,10-triazadibenzo[cd,f]azulen-3-yl)propanamido)piperidine-1-carboxylate [Example 126] | 53.6 | 80 | – | – |
| COC(=O)CCC1Nc2ccc(CS(C)(=O)=O)cc2-c2cn(C)c(=O)c3[nH]cc1c23 (racemic) [Example 17, methyl 3-(10-methyl-7-((methylsulfonyl)methyl)-11-oxo-3,4,10,11-tetrahydro-1H-1,4,10-triazadibenzo[cd,f]azulen-3-yl)propanoate] | – | – | 165 | 53.9 |
| 4-([1,1′-biphenyl]−4-ylsulfonyl)-10-methyl-7-((methylsulfonyl)methyl)-3,4-dihydro-1H-1,4,10-triazadibenzo[cd,f]azulen-11(10H)-one [Example 75] | > 238 | > 408 | – | – |
| Cn1cc2c3c(c[nH]c3c1=O)CNc1ccc(CS(C)(=O)=O)cc1-2 [Example 5, 10-methyl-7-((methylsulfonyl)methyl)-3,4-dihydro-1H-1,4,10-triazadibenzo[cd,f]azulen-11(10H)-one] | – | – | 765 | 758 |
| COc1cccc(CNC(=O)N2Cc3c[nH]c4c(=O)n(C)cc(c34)-c3cc(CS(C)(=O)=O)ccc32)c1 [Example 65, N-(3-methoxybenzyl)-10-methyl-7-((methylsulfonyl)methyl)-11-oxo-10,11-dihydro-1H-1,4,10-triazadibenzo[cd,f]azulene-4(3H)-carboxamide] | > 238 | 238 | – | – |
| Cn1cc2c3c(c[nH]c3c1=O)CN(C(=O)OCCF)c1ccc(CS(C)(=O)=O)cc1-2 [Example 96, 2-fluoroethyl 10-methyl-7-((methylsulfonyl)methyl)-11-oxo-10,11-dihydro-1H-1,4,10-triazadibenzo[cd,f]azulene-4(3H)-carboxylate] | 3.46 | 1.61 | – | – |
| CCCCC(CC)COC(=O)N1Cc2c[nH]c3c(=O)n(C)cc(c23)-c2cc(CS(C)(=O)=O)ccc21 (stereo not shown) [Example 53, 2-ethylhexyl 10-methyl-7-((methylsulfonyl)methyl)-11-oxo-10,11-dihydro-1H-1,4,10-triazadibenzo[cd,f]azulene-4(3H)-carboxylate] | 4.78 | 21.9 | – | – |
| CCOC(=O)C1CCC(CNC(=O)N2Cc3c[nH]c4c(=O)n(C)cc(c34)-c3cc(CS(C)(=O)=O)ccc32)CC1 (stereo not shown) [Example 72, ethyl 4-((10-methyl-7-((methylsulfonyl)methyl)-11-oxo-3,4,10,11-tetrahydro-1H-1,4,10-triazadibenzo[cd,f]azulene-4-carboxamido)methyl)cyclohexanecarboxylate] | 26.2 | 37 | – | – |
| 4-(1-ethylpiperidin-3-yl)-10-methyl-7-((methylsulfonyl)methyl)-3,4-dihydro-1H-1,4,10-triazadibenzo[cd,f]azulen-11(10H)-one [Example 190] | 26.7 | 30.9 | – | – |

Now from value to compound:

| Ki [1, 3] [nM] | Ki [2, 3] [nM] | Ki [1, 4] [nM] | Ki [2, 4] [nM] | Compound |
| --- | --- | --- | --- | --- |
| 4.21 | 9.2 | – | – | COCCC(C)N1Cc2c[nH]c3c(=O)n(C)cc(c23)-c2cc(CS(C)(=O)=O)ccc21 (racemic) [Example 186, 4-(4-methoxybutan-2-yl)-10-methyl-7-((methylsulfonyl)methyl)-3,4-dihydro-1H-1,4,10-triazadibenzo[cd,f]azulen-11(10H)-one] |
| 1.51 | 2.7 | – | – | CC1OCCC1N1Cc2c[nH]c3c(=O)n(C)cc(c23)-c2cc(CS(C)(=O)=O)ccc21 (stereo not shown) [Example 180, 10-methyl-7-((methylsulfonyl)methyl)-4-(2-methyltetrahydrofuran-3-yl)-3,4-dihydro-1H-1,4,10-triazadibenzo[cd,f]azulen-11(10H)-one] |
| 112 | 25.5 | – | – | Cn1cc2c3c(c[nH]c3c1=O)CN(C(=O)c1cccc3ccccc13)c1ccc(CS(C)(=O)=O)cc1-2 [Example 114, 4-(1-naphthoyl)-10-methyl-7-((methylsulfonyl)methyl)-3,4-dihydro-1H-1,4,10-triazadibenzo[cd,f]azulen-11(10H)-one] |
| 1.19 | 1.18 | – | – | Cn1cc(-c2[nH]c3c(=O)n(C)cc4c3c2CN(c2ccc(F)cc2)c2ccc(CS(C)(=O)=O)cc2-4)cn1 [Example 276, 4-(4-fluorophenyl)-10-methyl-2-(1-methyl-1H-pyrazol-4-yl)-7-((methylsulfonyl)methyl)-3,4-dihydro-1H-1,4,10-triazadibenzo[cd,f]azulen-11(10H)-one] |
| 1.12 | 0.88 | – | – | Cn1cc(-c2[nH]c3c(=O)n(C)cc4c3c2CN(c2ccccn2)c2ccc(CS(C)(=O)=O)cc2-4)cn1 [Example 273, 10-methyl-2-(1-methyl-1H-pyrazol-4-yl)-7-((methylsulfonyl)methyl)-4-(pyridin-2-yl)-3,4-dihydro-1H-1,4,10-triazadibenzo[cd,f]azulen-11(10H)-one] |
| 5.69 | 0.92 | – | – | COC(=O)CC[C@H]1c2c[nH]c3c(=O)n(C)cc(c23)-c2cc(CS(C)(=O)=O)ccc2N1c1ccc(F)cc1F (single isomer, unassigned) [Example 269] |
| 60 | 73.3 | – | – | Cn1cc2c3c(c[nH]c3c1=O)C(C(=O)NC1(CO)CC1)N(c1ccc(F)cc1F)c1ccc(CS(C)(=O)=O)cc1-2 (racemic) [Example 166, 4-(2,4-difluorophenyl)-N-(1-(hydroxymethyl)cyclopropyl)-10-methyl-7-((methylsulfonyl)methyl)-11-oxo-3,4,10,11-tetrahydro-1H-1,4,10-triazadibenzo[cd,f]azulene-3-carboxamide] |
| 72.7 | 94.7 | – | – | CCS(=O)(=O)c1ccc2c(c1)-c1cn(C)c(=O)c3[nH]cc(c13)CN2[C@@H](C)c1ccccc1 [Example 267, (S)-7-(ethylsulfonyl)-10-methyl-4-(1-phenylethyl)-3,4-dihydro-1H-1,4,10-triazadibenzo[cd,f]azulen-11(10H)-one] |
| > 238 | 142 | – | – | Cn1cc2c3c(c[nH]c3c1=O)C(Cn1ccccc1=O)N(c1ccc(F)cc1F)c1ccc(CS(C)(=O)=O)cc1-2 (single isomer, unassigned) [Example 251] |
| 7.18 | 11 | – | – | Cn1cc2c3c(c[nH]c3c1=O)CN(CC1CCOC(C)(C)C1)c1ccc(CS(C)(=O)=O)cc1-2 (racemic) [Example 152, 4-((2,2-dimethyltetrahydro-2H-pyran-4-yl)methyl)-10-methyl-7-((methylsulfonyl)methyl)-3,4-dihydro-1H-1,4,10-triazadibenzo[cd,f]azulen-11(10H)-one] |
| 16.5 | 19.4 | – | – | N-(3-methoxypropyl)-10-methyl-7-((methylsulfonyl)methyl)-11-oxo-10,11-dihydro-1H-1,4,10-triazadibenzo[cd,f]azulene-4(3H)-carboxamide [Example 73] |
